# Test results reported in the supplement of paper PMC11451515.
# Tested on: P12-Ichikawa
# Test: cell viability relative to DMSO control; higher = less cytotoxic
# Details: 48 h
# Summary of the method: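 NOMO1 or SEM cells were plated at 500 cells/well and P12-Ichikawa cells at 1000 cells/well in 1536-well plates (5 μl), after each leukemia line had been adapted for at least four passages in each medium. Pin dosing delivered library compounds in DMSO at 11 threefold concentrations, 47 μM to 0.79 nM. CellTiter-Glo One luminescence was read after 48 h at 37°C. Viability is reported as a per-plate percentage of DMSO wells, with cell-free wells as background.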
# [1] = HPLM + 10% dialyzed FBS, 0.000781 µM
# [2] = HPLM + 10% dialyzed FBS, 0.00234 µM
# [3] = HPLM + 10% dialyzed FBS, 0.00702 µM
# [4] = HPLM + 10% dialyzed FBS, 0.0211 µM
# [5] = HPLM + 10% dialyzed FBS, 0.0632 µM
# [6] = HPLM + 10% dialyzed FBS, 0.19 µM
# [7] = HPLM + 10% dialyzed FBS, 0.569 µM
# [8] = HPLM + 10% dialyzed FBS, 1.71 µM
# [9] = HPLM + 10% dialyzed FBS, 5.12 µM
# [10] = HPLM + 10% dialyzed FBS, 15.4 µM
# [11] = HPLM + 10% dialyzed FBS, 46.1 µM
# [12] = RPMI 5 mM glucose + 10% FBS, 0.000781 µM
# [13] = RPMI 5 mM glucose + 10% FBS, 0.00234 µM
# [14] = RPMI 5 mM glucose + 10% FBS, 0.00702 µM
# [15] = RPMI 5 mM glucose + 10% FBS, 0.0211 µM
# [16] = RPMI 5 mM glucose + 10% FBS, 0.0632 µM
# [17] = RPMI 5 mM glucose + 10% FBS, 0.19 µM
# [18] = RPMI 5 mM glucose + 10% FBS, 0.569 µM
# [19] = RPMI 5 mM glucose + 10% FBS, 1.71 µM
# [20] = RPMI 5 mM glucose + 10% FBS, 5.12 µM
# [21] = RPMI 5 mM glucose + 10% FBS, 15.4 µM
# [22] = RPMI 5 mM glucose + 10% FBS, 46.1 µM
# [23] = RPMI 5 mM glucose + 10% dialyzed FBS, 0.000781 µM
# [24] = RPMI 5 mM glucose + 10% dialyzed FBS, 0.00234 µM
# [25] = RPMI 5 mM glucose + 10% dialyzed FBS, 0.00702 µM
# [26] = RPMI 5 mM glucose + 10% dialyzed FBS, 0.0211 µM
# [27] = RPMI 5 mM glucose + 10% dialyzed FBS, 0.0632 µM
# [28] = RPMI 5 mM glucose + 10% dialyzed FBS, 0.19 µM
# [29] = RPMI 5 mM glucose + 10% dialyzed FBS, 0.569 µM
# [30] = RPMI 5 mM glucose + 10% dialyzed FBS, 1.71 µM
# [31] = RPMI 5 mM glucose + 10% dialyzed FBS, 5.12 µM
# [32] = RPMI 5 mM glucose + 10% dialyzed FBS, 15.4 µM
# [33] = RPMI 5 mM glucose + 10% dialyzed FBS, 46.1 µM
Structure (SMILES),cell viability [1] [%],cell viability [2] [%],cell viability [3] [%],cell viability [4] [%],cell viability [5] [%],cell viability [6] [%],cell viability [7] [%],cell viability [8] [%],cell viability [9] [%],cell viability [10] [%],cell viability [11] [%],cell viability [12] [%],cell viability [13] [%],cell viability [14] [%],cell viability [15] [%],cell viability [16] [%],cell viability [17] [%],cell viability [18] [%],cell viability [19] [%],cell viability [20] [%],cell viability [21] [%],cell viability [22] [%],cell viability [23] [%],cell viability [24] [%],cell viability [25] [%],cell viability [26] [%],cell viability [27] [%],cell viability [28] [%],cell viability [29] [%],cell viability [30] [%],cell viability [31] [%],cell viability [32] [%],cell viability [33] [%]
O=C(O)c1nn(Cc2ccc(Cl)cc2Cl)c2ccccc12,94.1,93,97.1,92.5,89.5,84,81.1,88.9,89.6,79.2,87.1,87.5,86.6,95.3,85.2,86.1,85.7,84.3,82.2,89.5,85.2,84.2,87.6,79.1,89.1,86.4,81.3,74,73.9,74.4,81.5,71.7,76.9
CCNC(=O)c1noc(-c2cc(C(C)C)c(O)cc2O)c1-c1ccc(CN2CCOCC2)cc1,103,111,112,113,109,52,53.9,50.1,52,45.8,44.2,111,116,115,117,97.4,41,43.5,39.6,47.2,40.1,35.8,96.9,112,108,115,100,42.1,43.8,41.1,44.9,39.4,37.3
COc1cc([C@@H]2c3cc4c(cc3[C@H](O)[C@H]3COC(=O)[C@H]23)OCO4)cc(OC)c1OC,87.8,39.1,12.4,7.37,7,8.5,7.63,8.21,6.81,5.69,2.44,84.9,45.4,15.6,9.29,7.32,7.35,6.22,5.7,5.67,4.24,1.48,84,41.4,19.7,11.7,6.34,8.83,7.96,7.78,7.21,5.34,2.45
CCCCCCCN(CC)CCCC(O)c1ccc(NS(C)(=O)=O)cc1.CCCCCCCN(CC)CCCC(O)c1ccc(NS(C)(=O)=O)cc1.O=C(O)/C=C/C(=O)O (stereo not drawn),111,108,116,111,101,125,113,112,112,88.9,77.7,107,118,113,108,85.4,115,116,111,102,89.6,69.1,100,101,106,113,94.8,108,111,113,98.9,93,69.2
O=C1N\N=C(\C[C@@H]2CCN(C2)C(=O)C3CC3)N1C4=CC=C(C=C4)C5=CC=C6OC=CC6=C5,79.6,82,83.2,86.1,91.9,81.5,81,88.7,83.7,83.2,80.3,76.3,77,77.1,78.3,87.6,75.5,73.6,78.8,82.1,78.2,83.9,83.3,79.8,81.6,84,93.6,84.5,91.1,80.6,82.9,86.3,85.7
COc1cc2nc(N3CCN(C(=O)c4ccco4)CC3)nc(N)c2cc1OC,88.4,91.4,95,102,99,93.2,110,84.7,97.1,55.1,4.81,84.1,88.8,97.8,91.6,98.2,103,87,95,91.2,98.9,5.43,77.1,74.4,91,80.1,90.7,85.3,93.5,89.1,90.1,95.1,5.58
COC(=O)Nc1nc2cc(Sc3ccccc3)ccc2[nH]1,124,115,119,108,112,114,111,96,19.5,25.2,31.8,112,113,118,111,113,124,115,97.6,16.8,29.3,28.7,101,109,120,114,113,111,102,90,24.5,30.4,35.5
COc1cc([C@@H]2c3cc4c(cc3[C@@H](O[C@@H]3O[C@@H]5CO[C@@H](C)O[C@H]5[C@H](O)[C@H]3O)[C@H]3COC(=O)[C@H]23)OCO4)cc(OC)c1O,87.1,89.5,90.2,80.9,76.8,85.8,73.1,12.1,3.56,1.85,6.17,79.5,86.9,78.2,76,83.6,67.6,51.7,6.56,3.5,3.55,4.21,73.4,78.2,84.7,78.1,78.7,74.1,63.9,8.76,4.69,3.79,4.42
CC(=O)[C@H]1CC[C@H]2[C@@H]3C/C=C4/C[C@@H](O)CC[C@]4(C)[C@H]3CC[C@]12C,120,124,114,116,112,120,124,115,114,114,110,,,,,,,,,,,,112,120,129,112,124,115,126,125,112,104,103
CCCCc1oc2ccccc2c1C(=O)c1cc(I)c(OCCN(CC)CC)c(I)c1,114,114,113,109,115,102,110,104,104,104,91.1,,,,,,,,,,,,106,114,115,114,111,107,116,106,103,103,94.5
CC1CCN(c2cc(N3CCN(C)CC3)ccc2NC(=O)c2cc(C#N)c[nH]2)CC1,,,,,,,,,,,,,,,,,,,,,,,124,119,122,126,133,119,115,121,106,106,99.9
COc1cc([S+](C)(=O)[O-])ccc1Nc1nc2ccc(-c3ccc(NC(=O)[C@H](C)c4ccc(F)cc4)cc3)cn2n1,109,106,108,110,120,117,120,49,56.4,61.4,65,103,116,118,108,113,117,114,37.2,55.1,56.4,57.1,,,,,,,,,,,
CNC(=O)c1cc(COc2nnc(Nc3ccc(Cl)cc3)c3ccoc23)ccn1,119,109,110,105,106,113,105,103,106,101,89.4,117,116,118,115,116,113,112,110,105,107,102,114,130,108,114,104,115,116,100,111,101,97.4
NC(=O)Cc1cccc(C(=O)c2ccccc2)c1N,101,103,103,92.6,110,111,103,106,97.7,98.6,95.6,100,96.6,102,86.9,106,94.3,97,96.2,99,85.3,82.9,102,101,101,85.2,96.1,98.3,101,99.3,101,87.7,85.2
CN1C(=O)\C(=C/C2=C1N=C(NC3CCOCC3)N=C2)OC4=C(F)C=C(F)C=C4,92.5,96.2,95.4,95.3,96.9,90.2,87.5,93.2,82.6,87.2,50.7,92.3,90.3,93.5,95.2,96.1,96.6,91.8,90,90.5,90.4,39.4,100,94.7,90.6,87.1,96.3,99.1,93.5,86.7,79.3,81.8,35.9
CN1CCN(CC1)C/2=N/C3=CC=CC=C3NC4=C2C=C(C)S4,98,93.9,105,98.5,98.8,104,107,96.9,87.4,97.4,91.1,92.8,104,104,102,102,105,102,101,72.2,102,84.8,94.1,99.9,97.9,96.8,98.3,99.9,99.1,91.4,92.1,93,91.9
